Like-named read-outs stand apart in the source and are kept apart here. Ends that are not written are not given here.
What was measured:
HEK293T cells = experiment: Cytotoxicity assay (CellTiter-Glo); assay type: cell-based, human; conditions: 72 h, 1-128 µM, triplicate
Method: HEK293T cells were cultured in DMEM supplemented with 10% FBS and incubated at 37 °C with 5% CO2. After planting the cells into a 96‐well plate and incubated overnight, AMP solutions were added. The gradient dilution of AMPs followed the same setting as mentioned in the hemolysis assay. Staurosporine (STS) was used as a positive control and PBS as vehicle control. STS was diluted to 60, 12, 2.4, 0.48, 0.1, 0.02, 0.0038, and 0.0008 µM. After incubation for 72 h, the CellTiter‐Glo®Luminescent assay was performed to evaluate the cell viability. After equilibration to room temperature, the 96‐well plate containing treated cells was loaded with 100 µL CellTiter Glo (CTG, Promega) reagent each well. The plate was incubated for 30 mins, then detected by the EnVision system at a […]. Data were fitted and analyzed with GraphPad Prism 8. All tests were performed in triplicate.

rat erythrocytes = experiment: Hemolysis assay; conditions: rat RBC 10% in PBS, 37 °C, 1 min, 1-128 µM, absorbance 450 nm, triplicate, fitted with GraphPad Prism 8
Method: In vitro hemolysis and cytotoxicity were measured by WuXi AppTec Co., ltd. The rat blood was collected and mixed in PBS, then centrifuged at 500 g for 5 mins to make the red blood cell solution (RBC, 10%). Two‐fold gradient dilution was performed to obtain different concentrations (128, 64, 32, 16, 8, 4, 2, and 1 µM) of AMP solutions. Then AMP solutions were added into 100 µL RBC to make the test solution and incubated at 37 °C for 1 min. The assay solution was centrifuged at 2500 g for 6 mins. After centrifugation, the 75 µL supernatant was placed into a 96‐well plate. PBS was used as the vehicle control and 0.1% Triton X‐100 was the positive control. The absorbance of the supernatant in each well was detected at 450 nm using EnVison (PerkinElmer) and the percentage of hemolysis was calculated as Equation (15). The HC25 value was fitted using GraphPad Prism 8. All tests were performed in triplicate. (15) Hemolysis%=AbsAMP−AbsPBS/AbsTritonX−100−AbsPBS×100

human erythrocytes = conditions: cited from earlier work
P.aeruginosa ATCC9027 = conditions: ATCC9027, 18 h
Method: (§1) Four standard bacteria used for the MIC test were Escherichia coli ATCC25922, Pseudomonas aeruginosa ATCC9027, Staphylococcus aureus ATCC6538, and Bacillus subtilis ATCC6633. The testing procedures followed the Hancock methods.^[ [67] ^] The peptides were diluted in sterilized PBS to 512 µM as storage solutions. Then twofold gradient dilution was performed to make different concentrations (128, 64, 32, 16, 8, 4, 2, 1, 0.5, 0.25, and 0.125 µM) of AMPs. Each bacteria was incubated in LB broth at 37 °C until its absorbance at 625 nm reached 0.08–0.10, then diluted 10,000 times and added into a sterile 96‐well polypropylene plate (Grenier, #655201). A co‐incubation system included 100 µL peptide solution and 100 µL bacterial suspension.

B.subtilis ATCC6633 = tested on: B.subtilis ATCC6633
Method: as §1

E.coli ATCC25922 = conditions: ATCC25922, 18 h
Method: as §1

S.aureus ATCC6538 = conditions: ATCC6538, 18 h
Method: as §1

tumor cells = conditions: ref DRACP; cited from earlier work
rabbit erythrocytes = conditions: ref DBAASP; cited from earlier work

RWRKWRRWWWRKKKLGF [A06]
CC50 (concentration that reduces viability by 50%) (HEK293T cells): 71.09 µM | HC25 (concentration that causes 25% hemolysis) (rat erythrocytes): > 128 µM

WKKWRWWWRWKKLWW [A10]
CC50 (concentration that reduces viability by 50%) (HEK293T cells): 51.11 µM | HC25 (concentration that causes 25% hemolysis) (rat erythrocytes): 30.13 µM

GIKDWIKGAAKTLIKTVASHIANQ [Ascaphin-5, reference compound]
HC50 (human erythrocytes; ref DRAMP): > 200 µM | MIC P.aeruginosa (P.aeruginosa ATCC9027): 128 µM | MIC B.subtilis (B.subtilis ATCC6633; initial sequences of A01-A10, same conditions as A01-A10): 16 µM | MIC E.coli (E.coli ATCC25922): 16 µM | MIC S.aureus (S.aureus ATCC6538): 4 µM

GRKKRRQRRRGGWMWVTNLRTD [TAT-Ras-GAP317-326]
Hemolysis and cytotoxicity (tumor cells): Enhances genotoxin-induced cytotoxicity in tumor cells

RLKIHLYIKHYRRPKIVIRLKIK [R01]
MIC P.aeruginosa ATCC9027 (P.aeruginosa ATCC9027): > 128 µM | MIC B.subtilis ATCC6633 (B.subtilis ATCC6633; ATCC6633, 18 h): > 128 µM | MIC E.coli ATCC25922 (E.coli ATCC25922): > 128 µM | MIC S.aureus ATCC6538 (S.aureus ATCC6538): 128 µM

IFHHIFRGIHHIFKGIHRLWKR [A02]
MIC P.aeruginosa ATCC9027 (P.aeruginosa ATCC9027): > 128 µM | MIC B.subtilis ATCC6633 (B.subtilis ATCC6633; ATCC6633, 18 h): 4 µM | MIC E.coli ATCC25922 (E.coli ATCC25922): 64 µM | MIC S.aureus ATCC6538 (S.aureus ATCC6538): 4 µM

RGWFKVKRRYIKRFMRGLRGFHIKAA [R04]
CC50 (concentration that reduces viability by 50%) (HEK293T cells): 23.59 µM | MIC P.aeruginosa ATCC9027 (P.aeruginosa ATCC9027): 8 µM | MIC B.subtilis ATCC6633 (B.subtilis ATCC6633; ATCC6633, 18 h): 1 µM | MIC E.coli ATCC25922 (E.coli ATCC25922): 2 µM | MIC S.aureus ATCC6538 (S.aureus ATCC6538): 0.5 µM

RRLRRLRILLFLKRVLRR [S02]
CC50 (concentration that reduces viability by 50%) (HEK293T cells): > 128 µM | HC25 (concentration that causes 25% hemolysis) (rat erythrocytes): > 128 µM

KLKIKFKFHLKLFGLF [S09]
MIC P.aeruginosa ATCC9027 (P.aeruginosa ATCC9027): > 128 µM | MIC B.subtilis ATCC6633 (B.subtilis ATCC6633; ATCC6633, 18 h): > 128 µM | MIC E.coli ATCC25922 (E.coli ATCC25922): > 128 µM | MIC S.aureus ATCC6538 (S.aureus ATCC6538): 128 µM

SMWSGMWRRKLKKLRNALKKKLKGE [Latarcin-1]
Concentration for 20% hemolysis (rabbit erythrocytes): 80 µM

KKQVKWLLKVWKKVGIKLGAKLPVWK [S01]
MIC P.aeruginosa ATCC9027 (P.aeruginosa ATCC9027): 64 µM | MIC B.subtilis ATCC6633 (B.subtilis ATCC6633; ATCC6633, 18 h): 2 µM | MIC E.coli ATCC25922 (E.coli ATCC25922): 16 µM | MIC S.aureus ATCC6538 (S.aureus ATCC6538): 2 µM

QPKKPYKPIYKKVRGVLIPFKRV [R10]
MIC P.aeruginosa ATCC9027 (P.aeruginosa ATCC9027): > 128 µM | MIC B.subtilis ATCC6633 (B.subtilis ATCC6633; ATCC6633, 18 h): > 128 µM | MIC E.coli ATCC25922 (E.coli ATCC25922): > 128 µM | MIC S.aureus ATCC6538 (S.aureus ATCC6538): > 128 µM

YWRRWYIWRWRRWRWLRYI [R03]
MIC P.aeruginosa ATCC9027 (P.aeruginosa ATCC9027): > 128 µM | MIC B.subtilis ATCC6633 (B.subtilis ATCC6633; ATCC6633, 18 h): 128 µM | MIC E.coli ATCC25922 (E.coli ATCC25922): > 128 µM | MIC S.aureus ATCC6538 (S.aureus ATCC6538): 128 µM

GIKKWIKGAIKKLIKKVAKWIWKQ [A07]
MIC P.aeruginosa ATCC9027 (P.aeruginosa ATCC9027): 16 µM | MIC B.subtilis ATCC6633 (B.subtilis ATCC6633; ATCC6633, 18 h): 0.5 µM | MIC E.coli ATCC25922 (E.coli ATCC25922): 8 µM | MIC S.aureus ATCC6538 (S.aureus ATCC6538): 2 µM

KWFFKWFRKHFLKWMRQYFHK [R02]
MIC P.aeruginosa ATCC9027 (P.aeruginosa ATCC9027): 64 µM | MIC B.subtilis ATCC6633 (B.subtilis ATCC6633; ATCC6633, 18 h): 4 µM | MIC E.coli ATCC25922 (E.coli ATCC25922): 128 µM | MIC S.aureus ATCC6538 (S.aureus ATCC6538): 8 µM

KLYKYKYRKVYKKQRRR [R09]
MIC P.aeruginosa ATCC9027 (P.aeruginosa ATCC9027): > 128 µM | MIC B.subtilis ATCC6633 (B.subtilis ATCC6633; ATCC6633, 18 h): > 128 µM | MIC E.coli ATCC25922 (E.coli ATCC25922): > 128 µM | MIC S.aureus ATCC6538 (S.aureus ATCC6538): 64 µM

RGWTMVKARYIKRFMRGLRGFHIKAA [2-2]
MIC P.aeruginosa ATCC9027 (P.aeruginosa ATCC9027): 128 µM | MIC B.subtilis ATCC6633 (B.subtilis ATCC6633; ATCC6633, 18 h): 2 µM | MIC E.coli ATCC25922 (E.coli ATCC25922): 4 µM | MIC S.aureus ATCC6538 (S.aureus ATCC6538): 2 µM

FFHHIFRAIVHVGKTIHRLVTG [Piscidin 1 [G8A], reference compound]
HC50 (human erythrocytes; ref DBAASP): 4 µM | MIC P.aeruginosa (P.aeruginosa ATCC9027): > 128 µM | MIC B.subtilis (B.subtilis ATCC6633; ATCC6633, 18 h): 4 µM | MIC E.coli (E.coli ATCC25922): 16 µM | MIC S.aureus (S.aureus ATCC6538): 4 µM

VKKRLLFRKPLLKLFLLFGRRLKA [S07]
CC50 (concentration that reduces viability by 50%) (HEK293T cells): 22.12 µM | HC25 (concentration that causes 25% hemolysis) (rat erythrocytes): > 128 µM

From article PMC12631831, “Painting Peptides With Antimicrobial Potency Through Deep Reinforcement Learning” (Advanced Science, 2025)
